In ChEMBL document CHEMBL1142021, “Aglycon specificity profiling of alpha-glucosidases using synthetic probes” (Bioorg Med Chem Lett, 2005):

Assays:
[1] = target: Alpha-glucosidase (Beta vulgaris) (UniProt O04931); assay: Inhibition of Sugar beet glucosidase (of family 31 alpha-glucosidase) at 1 umol/mL
[2] = target: T1, Alpha-glucosidase (Aspergillus niger) (UniProt P56526); assay: Inhibition of Aspergillus niger glucosidase (of family 31 alpha-glucosidase) at 1 umol/mL
T1 sequence (whole entry): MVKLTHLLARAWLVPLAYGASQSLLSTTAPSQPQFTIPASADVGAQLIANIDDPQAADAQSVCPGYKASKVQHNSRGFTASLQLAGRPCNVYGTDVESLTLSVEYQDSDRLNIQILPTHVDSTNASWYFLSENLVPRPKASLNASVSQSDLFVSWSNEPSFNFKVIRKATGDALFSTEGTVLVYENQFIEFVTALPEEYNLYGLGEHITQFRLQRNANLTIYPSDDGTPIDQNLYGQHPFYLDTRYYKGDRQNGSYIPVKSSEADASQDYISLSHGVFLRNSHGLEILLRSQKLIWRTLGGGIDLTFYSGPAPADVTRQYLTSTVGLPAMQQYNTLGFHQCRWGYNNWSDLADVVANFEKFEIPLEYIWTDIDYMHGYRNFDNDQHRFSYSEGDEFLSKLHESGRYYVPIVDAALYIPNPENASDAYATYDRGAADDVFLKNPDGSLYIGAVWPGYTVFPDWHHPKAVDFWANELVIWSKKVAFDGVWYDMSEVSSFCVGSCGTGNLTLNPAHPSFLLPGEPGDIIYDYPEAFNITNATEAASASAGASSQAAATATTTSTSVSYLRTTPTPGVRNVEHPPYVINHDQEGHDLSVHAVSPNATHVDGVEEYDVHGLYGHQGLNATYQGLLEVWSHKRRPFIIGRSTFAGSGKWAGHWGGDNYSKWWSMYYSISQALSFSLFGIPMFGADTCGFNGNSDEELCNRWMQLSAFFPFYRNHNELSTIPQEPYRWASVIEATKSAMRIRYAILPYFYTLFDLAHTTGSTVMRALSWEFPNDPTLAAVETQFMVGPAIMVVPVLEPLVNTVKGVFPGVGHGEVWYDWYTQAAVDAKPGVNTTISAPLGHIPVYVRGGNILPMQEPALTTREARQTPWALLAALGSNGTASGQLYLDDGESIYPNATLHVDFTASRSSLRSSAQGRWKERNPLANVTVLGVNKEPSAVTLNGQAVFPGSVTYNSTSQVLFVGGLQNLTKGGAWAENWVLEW

[3] = target: T2, Alpha-glucosidase (Apis mellifera) (UniProt Q17058); assay: Inhibition of family 13 alpha-glucosidase isoform I from honey bee at 1 umol/mL
T2 sequence (whole entry): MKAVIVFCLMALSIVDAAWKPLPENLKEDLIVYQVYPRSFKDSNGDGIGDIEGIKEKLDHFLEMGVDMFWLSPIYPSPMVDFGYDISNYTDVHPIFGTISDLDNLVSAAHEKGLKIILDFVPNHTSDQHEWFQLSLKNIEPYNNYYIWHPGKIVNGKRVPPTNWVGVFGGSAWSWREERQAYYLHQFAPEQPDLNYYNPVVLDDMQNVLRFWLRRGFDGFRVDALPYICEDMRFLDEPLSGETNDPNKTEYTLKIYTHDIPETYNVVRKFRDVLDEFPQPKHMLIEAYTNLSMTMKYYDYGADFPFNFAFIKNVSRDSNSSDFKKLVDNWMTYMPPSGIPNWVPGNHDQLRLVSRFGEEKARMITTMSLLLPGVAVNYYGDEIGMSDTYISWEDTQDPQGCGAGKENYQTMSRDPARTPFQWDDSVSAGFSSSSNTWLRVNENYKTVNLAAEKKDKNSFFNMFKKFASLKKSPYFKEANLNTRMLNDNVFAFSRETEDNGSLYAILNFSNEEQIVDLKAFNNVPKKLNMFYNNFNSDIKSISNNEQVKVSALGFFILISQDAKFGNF

[4] = target: T3, Cytosolic beta-glucosidase (Homo sapiens) (UniProt Q9H227); assay: Inhibition of beta-Glucosidase at 2 umol/mL
T3 sequence (whole entry): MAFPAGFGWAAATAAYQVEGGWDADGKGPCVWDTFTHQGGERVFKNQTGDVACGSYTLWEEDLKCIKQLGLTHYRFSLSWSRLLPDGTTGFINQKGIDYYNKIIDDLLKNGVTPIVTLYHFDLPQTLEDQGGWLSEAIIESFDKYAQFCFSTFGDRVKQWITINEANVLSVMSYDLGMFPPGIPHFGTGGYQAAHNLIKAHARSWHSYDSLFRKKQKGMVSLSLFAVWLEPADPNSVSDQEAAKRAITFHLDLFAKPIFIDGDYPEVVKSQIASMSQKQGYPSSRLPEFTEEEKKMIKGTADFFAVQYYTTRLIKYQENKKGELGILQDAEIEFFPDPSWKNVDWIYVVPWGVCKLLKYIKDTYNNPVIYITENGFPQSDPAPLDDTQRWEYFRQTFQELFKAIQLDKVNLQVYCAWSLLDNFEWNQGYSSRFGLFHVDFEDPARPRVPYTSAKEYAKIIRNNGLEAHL

[5] = target: T2, Alpha-glucosidase (Apis mellifera); assay: Inhibition of family 13 alpha-glucosidase isoform II from honey bee at 1 umol/mL
[6] = species: Homo sapiens; assay: Inhibition of Glucosidase 2 at 2 umol/mI
[7] = target: T4, Alpha-glucosidase (Geobacillus stearothermophilus) (UniProt P94451); assay: Inhibition of Bacillus stearothermophilus glucosidase (of family 13 alpha-glucosidase) at 1 umol/mL
T4 sequence (whole entry): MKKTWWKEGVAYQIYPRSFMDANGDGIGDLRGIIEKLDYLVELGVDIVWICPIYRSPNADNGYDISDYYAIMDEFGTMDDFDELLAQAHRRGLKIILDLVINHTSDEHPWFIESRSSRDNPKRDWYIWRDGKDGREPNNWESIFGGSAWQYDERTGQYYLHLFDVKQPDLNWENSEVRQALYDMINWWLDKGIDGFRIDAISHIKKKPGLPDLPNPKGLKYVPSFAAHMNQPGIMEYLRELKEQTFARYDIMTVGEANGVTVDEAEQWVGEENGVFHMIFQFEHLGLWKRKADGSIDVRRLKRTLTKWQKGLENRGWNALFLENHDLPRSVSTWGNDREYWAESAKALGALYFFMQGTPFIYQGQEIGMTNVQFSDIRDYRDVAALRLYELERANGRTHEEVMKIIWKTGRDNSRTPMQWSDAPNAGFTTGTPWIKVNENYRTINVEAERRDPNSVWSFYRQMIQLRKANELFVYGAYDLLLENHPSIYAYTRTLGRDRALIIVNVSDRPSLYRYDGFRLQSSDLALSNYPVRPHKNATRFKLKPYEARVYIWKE

Chain of Alpha-glucosidase (Beta vulgaris) (O04931 whole entry): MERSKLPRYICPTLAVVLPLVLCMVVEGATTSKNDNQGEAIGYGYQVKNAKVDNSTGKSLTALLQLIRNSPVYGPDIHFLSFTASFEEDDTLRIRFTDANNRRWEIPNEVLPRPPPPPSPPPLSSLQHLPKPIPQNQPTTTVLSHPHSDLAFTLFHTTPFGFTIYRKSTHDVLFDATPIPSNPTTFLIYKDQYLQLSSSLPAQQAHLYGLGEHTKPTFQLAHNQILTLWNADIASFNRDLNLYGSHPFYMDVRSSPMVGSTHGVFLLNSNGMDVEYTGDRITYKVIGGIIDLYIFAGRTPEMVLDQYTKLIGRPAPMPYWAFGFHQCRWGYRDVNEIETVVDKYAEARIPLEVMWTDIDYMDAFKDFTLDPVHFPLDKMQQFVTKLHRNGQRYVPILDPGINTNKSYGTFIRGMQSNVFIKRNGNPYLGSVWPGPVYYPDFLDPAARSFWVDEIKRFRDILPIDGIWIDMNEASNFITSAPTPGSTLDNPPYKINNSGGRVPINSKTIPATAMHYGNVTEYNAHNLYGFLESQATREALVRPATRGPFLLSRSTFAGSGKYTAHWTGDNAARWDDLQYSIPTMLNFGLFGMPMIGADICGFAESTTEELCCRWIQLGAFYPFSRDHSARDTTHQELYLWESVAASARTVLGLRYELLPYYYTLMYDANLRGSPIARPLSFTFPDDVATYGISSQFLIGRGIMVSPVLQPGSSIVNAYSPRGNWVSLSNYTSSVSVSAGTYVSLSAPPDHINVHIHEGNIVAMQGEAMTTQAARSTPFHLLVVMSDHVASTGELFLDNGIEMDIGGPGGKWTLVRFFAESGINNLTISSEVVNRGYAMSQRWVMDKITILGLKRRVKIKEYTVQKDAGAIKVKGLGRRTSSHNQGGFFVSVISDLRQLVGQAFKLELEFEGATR

inhibition ([1]; Beta vulgaris subsp. vulgaris) [%]	inhibition [2] [%]	inhibition [3] [%]	inhibition [4] [%]	inhibition [5] [%]	inhibition [6] [%]	inhibition [7] [%]	inhibition [1] [%]	SMILES
6.9	6.6	< 52.3	< 1	4.4	< 1	< 1		O=C(CO)NCC1OC(CO)C(O)C(O)C1O (configuration not stated)
8.8	23.3	10.4	< 1	< 1	< 1	< 1		CC(=O)NCC1OC(CO)C(O)C(O)C1O (configuration not stated)
1.7	2.6	< 1	< 1	2.7		< 1		O=C(CCO)NCC1OC(CO)C(O)C(O)C1O (configuration not stated)
3.2	1.2	< 1	< 1	< 1	< 1	< 1		CC(C)(C)C(=O)NCC1OC(CO)C(O)C(O)C1O (configuration not stated)
	14	4.6			5.9	< 1	9.8	O=C(NCC1OC(CO)C(O)C(O)C1O)c1ccccc1 (configuration not stated)
3.6	< 1		< 1	3.6	< 1	< 1		O=C(CCCO)NCC1OC(CO)C(O)C(O)C1O (configuration not stated)
11.9	< 1	< 1	< 1	4.4	< 1	< 1		O=C(CCCCCO)NCC1OC(CO)C(O)C(O)C1O (configuration not stated)
3.1	6.8	37.5	< 1	21.4	< 1	100		O=C(CCCCO)NCC1OC(CO)C(O)C(O)C1O (configuration not stated)
